{
  "source": "paper PMC4143179",
  "about": "(Journal of Natural Products, 2014)",
  "key": {"[1]": {"tested_on": "MDCK-MDR1 cells", "settings": "transport with versus without verapamil"}, "[2]": {"tested_on": "MCF7 breast cancer cell line", "test": "Antiproliferation assay", "type": "cell-based"}, "[3]": {"tested_on": "P-glycoprotein (P-gp)", "settings": "cited from earlier work"}, "[4]": {"settings": "intravenous or inhaled administration; cited from earlier work"}},
  "data": [
    {"smiles": "COC(=O)[C@@H]1C[C@H](OC(C)=O)C(=O)[C@H]2[C@@]1(C)CC[C@H]1C(=O)O[C@H](CC3=CC(=O)C(OC)=C(OC)C3=O)C[C@]21C", "note": "[Compound 14, (2S,4aR,6aR,7R,9S,10aS,10bR)-Methyl 9-Acetoxy-2-[(4,5-dimethoxy-3,6-dioxocyclohexa-1,4-dien-1-yl)methyl]-6a,10b-dimethyl-4,10-dioxododecahydro-1H-benzo[f]isochromene-7-carboxylate]", "values": [
      {"measurement": "efflux by P-gp (in words)", "setting": "[1]", "value": "actively effluxed by P-gp"}
    ]},
    {"smiles": "COC(=O)[C@@H]1C[C@H](OC(C)=O)C(=O)[C@H]2[C@@]1(C)CC[C@H]1C(=O)O[C@H](CC3=CC(=O)C(OC)=CC3=O)C[C@]21C", "note": "[Compound 15, (2S,4aR,6aR,7R,9S,10aS,10bR)-Methyl 9-Acetoxy-2-[(4-methoxy-3,6-dioxocyclohexa-1,4-dien-1-yl)methyl]-6a,10b-dimethyl-4,10-dioxododecahydro-1H-benzo[f]isochromene-7-carboxylate]", "values": [
      {"measurement": "efflux by P-gp (in words)", "setting": "[1]", "value": "actively effluxed by P-gp"}
    ]},
    {"smiles": "COC(=O)[C@@H]1C[C@H](OC(C)=O)C(=O)[C@H]2[C@@]1(C)CC[C@H]1C(=O)O[C@H](c3ccoc3)C[C@]21C", "note": "[Salvinorin A, salvinorin A]", "values": [
      {"measurement": "antiproliferative effects (in words)", "setting": "[2]", "value": "did not show any detectable antiproliferative effects"},
      {"measurement": "P-glycoprotein substrate (in words)", "setting": "[3]", "value": "substrate for P-glycoprotein"},
      {"measurement": "efflux by P-gp (in words)", "setting": "[1]", "value": "actively effluxed by P-gp"},
      {"measurement": "time to cross the blood–brain barrier", "setting": "[4]", "value": "≤ 1", "unit": "min"}
    ]},
    {"smiles": "Cn1c(=O)c2c(ncn2C)n(C)c1=O", "note": "[caffeine]", "values": [
      {"measurement": "efflux by P-gp (in words)", "setting": "[1]", "value": "limited efflux by P-gp"}
    ]},
    {"smiles": "COc1cc2nc(N3CCN(C(=O)c4ccco4)CC3)nc(N)c2cc1OC", "note": "[prazosin]", "values": [
      {"measurement": "efflux by P-gp (in words)", "setting": "[1]", "value": "actively effluxed by P-gp"}
    ]}
  ]
}
